Reference: patent publication US20230043428A1, “COMPOSITIONS AND METHODS FOR USE OF CANNABINOIDS FOR NEUROPROTECTION” (INMED PHARMACEUTICALS INC., priority 2019, published 2023)
“And” between values parts separate entries of the source, which are not always exact repeats. Equal values may be shown once. “Also recorded” adds a separate entry of the source.

Assays:
[1] = tested on: rat episcleral vein laser photocoagulation model of glaucoma (RGC function); experiment: pattern electroretinogram (pERG) in the rat episcleral vein laser photocoagulation model of glaucoma; assay type: in vivo; conditions: for pERG amplitudes vs baseline (statistical significance): two-way ANOVA, Tukey
Protocol: The pattern electroretinogram (pERG) amplitude a parameter that measures retinal ganglion cell (RGC) activity was evaluated on the eyes of anesthetized animals. During the pERG recording, the eyes were kept moist with a drop of 2.5% GonioVisc ophthalmic lubricant solution (Hub Pharmaceuticals), which also secured electrical contact between the corneas and ERG electrodes. The ERG electrodes were thin silver/silver-chloride wire rings. One eye was recorded while another eye was mechanically occluded. The occluded eye served as a reference in the ERG recording providing minimal physiological noise, while the ground electrode was placed on the tail. Only the signals from the right eye (OD) were recorded. The pERG stimulus was generated with a gamma-linearized monitor screen yielding vertical sinusoidal pattern of 0.10 cycles per degree of visual angle at viewing distance. The mean luminance of stimulation was 45 lux and contrast between dark and white was 99%. […] Two recordings were performed for each eye. For the pERG analysis, the pERG waveforms were superimposed, checked for consistency and averaged as final pERG response. Baseline pERG responses were recorded at day 0 four days prior to the lasering, and on days 7, 14 and day 21 post-lasering. Initially pERG baseline amplitudes were recorded on the eyes of all animals at baseline. The animals were then randomized into control and treatments groups based on their pERG response.
The following treatment arms were used in the study: • Group 1: Vehicle (0.5% DMSO-PBS) (IVT, day 0, day 7 and day 15) n=11 • Group 2: CBN low dose, 5 μM in 0.05% DMSO-PBS (IVT, day 0, day 7 and day 15) n=13 • Group 3: CBN high dose 50 μM in 0.5% DMSO-PBS (IVT, day 0, day 7 and day 15) n=11 • Group 4: Brimonidine (topical, twice daily at 5 μl per eye, day −3 to day 21) n=14

[2] = tested on: differentiated 661W cells; experiment: MTT assay, cannabinoid cytotoxicity on differentiated 661W cells under atmospheric pressure; assay type: cell-based, mouse; conditions: 72 hours
Protocol: (§1) Cell Culture and Differentiation: The mouse 661W (RGC-5) cell line was maintained in DMEM cell culture medium supplemented with 10% FBS and 1% Antibiotic-Antimycotic penicillin/streptomycin (growth medium) at 37° C. in a humidified atmosphere of 5% CO2. To induce neuronal differentiation in 661W cells, culture media was replaced by a growth medium containing 321 nM Staurosporine (STSR), and cells were incubated for 24 hrs at 37° C. in a humidified atmosphere of 5% CO2.
(§2) Compounds and Dosing Formulations: Selected cannabinoids: CBN, CBD, CBGA, CBDA, CBND and Δ^9-THC were procured from Cayman and Toronto Research Chemicals. Ethanol was used as the solvent to prepare 1 and 10 mM stock solutions. Treatment concentrations for CBN were prepared at 0.015, 0.05, 0.15, 0.5, 1.5, 5, 10 and 15 μM. Treatment concentrations at 0.5, 1.5 and 5 μM for other cannabinoids were prepared directly in the control medium (DMEM+5% FBS+1% Antibiotic-Antimycotic) by using appropriate stock solution.
(§3) Evaluation of Cytotoxicity and Neuroprotection: Evaluation of cannabinoid cytotoxicity on differentiated 661W cells under atmospheric pressure was carried out using MTT (3-(4,5-dimethylthiazol-2-yl)-2,5-diphenyltetrazolium bromide) assay. The cells were seeded onto 96-well plates (4,000 cells/well) in DMEM complete medium and allowed to reach ˜70% confluence for 24 hrs. After 24 hours, cell culture medium was replaced by growth medium containing 321 nM Staurosporine (STSR) and incubated for 1 day to induce differentiation into a neuronal phenotype.
(§4) MTT Assay: For the MTT assay, differentiated 661W cells were treated with cannabinoids at various concentrations and processed to determine cytotoxicity. Briefly, 5 mg/mL of methylthiazolyldiphenyl-tetrazolium bromide (Sigma-Aldrich) stock solution was prepared in PBS. Following treatment of cannabinoids for 72 hours, 661W cells were incubated with 20 μL of MTT stock solution in 200 μL DMEM for 2 hours at 37° C. Following subsequent washes with PBS, 200 μL of isopropanol was added to each well, and the resulting change in color from dissolving formazan salt was immediately quantified using spectrophotometer (BMG Labtech) at a wavelength of 570 nm. The data was normalized to Vehicle Control (VC) containing 0.15% ethanol and presented as % Cell Death. The VC (%) at atmospheric pressure was considered as 0% cell death. The results are illustrated in FIG. 1.

[3] = tested on: differentiated 661W cells; experiment: MTT assay, differentiated 661W cells in pressurized chamber at elevated hydrostatic pressure (approximately 20 to 40 mm Hg); assay type: cell-based, mouse; conditions: for neuroprotection (Cell Death % vs Normal Pressure Vehicle Control): elevated hydrostatic pressure approximately 20 to 40 mm Hg, 72 hours
Protocol: as §1, §2, §3, §4
Except where indicated all procedures were performed as described in Example 1. Differentiated 661W cells treated with cannabinoids at the respective concentrations were placed in a pressurized chamber where an elevated hydrostatic pressure of […] was maintained for 72 hrs. At the end of incubation, 661W cells were processed for MTT assay to determine cytotoxicity. The results are illustrated in FIGS. 2-5.

[4] = tested on: differentiated 661W cells; experiment: MTT assay, CBNA on differentiated 661W cells at elevated hydrostatic pressure (~10-25 mmHg); assay type: cell-based, mouse; conditions: elevated hydrostatic pressure approximately 10 to 25 mmHg; 0.015 to 15 μM; 72 hours
Protocol: as §4
In a separate study cannabinol-derivative CBNA at 0.015, 0.05, 0.15, 0.5, 1.5, 5, 10, and 15 μM concentrations was placed on differentiated 661W cells in a pressurized chamber where an elevated hydrostatic pressure of ˜10-25 mmHg was maintained for 72 hrs. At the end of incubation, 661W cells were processed for MTT assay to determine cytotoxicity. The results are illustrated in FIG. 6.

[5] = Brimonidine topical, twice daily at 5 μl per eye
[6] = Brimonidine topical, twice daily
[7] = CBN high dose, 50 μM, IVT day 0, 7 and 15
[8] = CBN low dose, 5 μM, IVT day 0, 7 and 15

Brc1c(NC2=NCCN2)ccc2nccnc12 [Alphagan, Brimonidine]
pERG amplitudes vs baseline (statistical significance) ([1]; Brimonidine (ALPHAGAN) topical twice daily, follow-up days 14 and 21): did not differ significantly from the baseline
pERG amplitude (mean ± SEM), BASELINE ([1]; Brimonidine topical, twice daily at 5 μl per eye, day −3 to day 21, baseline): 3.6 ± 0.4 μV
pERG amplitude (mean ± SEM), DAY 7 [1, 5]: 3.9 ± 0.6 μV
pERG amplitude (mean ± SEM), DAY 14 [1, 5]: 2.8 ± 0.4 μV
pERG amplitude (mean ± SEM), DAY 21 [1, 5]: 2.4 ± 0.3 μV
pERG amplitude reduction compared to baseline value, Day 7 [1, 6]: 9.6%
pERG amplitude reduction compared to baseline value, Day 14 [1, 6]: −22.8%
pERG amplitude reduction compared to baseline value, Day 21 [1, 6]: −31.6%

CCCCCc1cc(O)c2c(c1)OC(C)(CCC=C(C)C)C=C2 (stereo not drawn) [CBC, cannabichromene]
toxicity when in contact with neurons ([2]; concentration of about 1.5 μM): high toxicity
toxicity when in contact with neurons ([2]; concentration of about 5 μM): high toxicity

C=C(C)[C@@H]1CCC(C)=C[C@H]1c1c(O)cc(CCCCC)c(C(=O)O)c1O [CBDA, cannabidiolic acid]
toxicity when in contact with neurons ([2]; concentration of about 5 μM): high toxicity
neuroprotection (Cell Death % vs Normal Pressure Vehicle Control) ([3]; 0.5 μM, 1.5 μM and 5 μM): absence of significant neuroprotection

C=C(C)[C@@H]1CCC(C)=C[C@H]1c1c(O)cc(CCCCC)cc1O [CBD]
toxicity when in contact with neurons ([2]; concentration of about 0.5 μM): high toxicity
toxicity when in contact with neurons ([2]; concentration of about 1.5 μM): high toxicity
toxicity when in contact with neurons ([2]; concentration of about 5 μM): high toxicity
neuroprotection (Cell Death % vs Normal Pressure Vehicle Control) ([3]; 0.5 μM, 1.5 μM and 5 μM): absence of significant neuroprotection

CCCCCc1cc(O)c(C/C=C(\C)CCC=C(C)C)c(O)c1 [CBG, cannabigerol]
toxicity when in contact with neurons ([2]; concentration of about 0.5 μM): high toxicity
toxicity when in contact with neurons ([2]; concentration of about 1.5 μM): high toxicity
toxicity when in contact with neurons ([2]; concentration of about 5 μM): high toxicity

CCCCCc1cc(O)c(C/C=C(\C)CCC=C(C)C)c(O)c1C(=O)O [CBGA]
toxicity when in contact with neurons ([2]; concentration of about 0.5 μM): high toxicity
toxicity when in contact with neurons ([2]; concentration of about 1.5 μM): high toxicity
toxicity when in contact with neurons ([2]; concentration of about 5 μM): high toxicity
neuroprotection (Cell Death % vs Normal Pressure Vehicle Control) ([3]; 0.5 μM, 1.5 μM and 5 μM): absence of significant neuroprotection

CCCCCc1cc(O)c2c(c1)OC(C)(C)c1ccc(C)cc1-2 [CBN, 6,6,9-trimethyl-3-pentylbenzo[c]chromen-1-ol]
pERG amplitudes vs baseline (statistical significance) ([1]; CBN high dose, 50 μM IVT, days 14 and 21): statistically significant difference in disease induction; also recorded: Statistically significant impairment of RGC function
pERG amplitude (mean ± SEM), BASELINE ([1]; CBN high dose, 50 μM, IVT day 0, 7 and 15, baseline (before lasering)): 3.83 μV and 3.8 ± 0.4 μV
pERG amplitude (mean ± SEM), DAY 7 [1, 7]: 3.6 ± 0.6 μV
pERG amplitude (mean ± SEM), DAY 14 [1, 7]: 1.87 μV and 1.9 ± 0.3 μV
pERG amplitude (mean ± SEM), DAY 21 [1, 7]: 2.19 μV and 2.2 ± 0.4 μV
pERG amplitude reduction compared to baseline value, Day 7 ([1]; CBN high dose, 50 μM, IVT): −6.4%
pERG amplitude reduction compared to baseline value, Day 14 ([1]; CBN high dose, 50 μM, IVT, **p<0.01 vs baseline): −51.2** %
pERG amplitude reduction compared to baseline value, Day 21 ([1]; CBN high dose, 50 μM, IVT, *p<0.05 vs baseline): −42.9* %
neuroprotective effect on RGCs ([1]; CBN low dose of 5 μM final concentration inside the eye): confers neuroprotective effect on RGCs similar to ALPHAGAN
pERG amplitudes vs baseline (statistical significance) ([1]; CBN low dose, 5 μM final concentration inside the eye, follow-up days 14 and 21): did not differ significantly from the baseline
pERG amplitude (mean ± SEM), BASELINE ([1]; CBN low dose, 5 μM, IVT day 0, 7 and 15, baseline (before lasering)): 3.3 ± 0.3 μV
pERG amplitude (mean ± SEM), DAY 7 [1, 8]: 3.2 ± 0.5 μV
pERG amplitude (mean ± SEM), DAY 14 [1, 8]: 2.3 ± 0.2 μV
pERG amplitude (mean ± SEM), DAY 21 [1, 8]: 2.2 ± 0.3 μV
pERG amplitude reduction compared to baseline value, Day 7 ([1]; CBN low dose, 5 μM, IVT): −3.7%
pERG amplitude reduction compared to baseline value, Day 14 ([1]; CBN low dose, 5 μM, IVT): −31.2%
pERG amplitude reduction compared to baseline value, Day 21 ([1]; CBN low dose, 5 μM, IVT): −31.6%
neuroprotection (Cell Death % vs Normal Pressure Vehicle Control) ([3]; CBN 0.015 to 15 μM, One-Way ANOVA vs VC): statistically significant neuroprotection; also recorded: significant neuroprotective effect
neuroprotective effect compared with CBD and Δ^9-THC ([3]; elevated pressure conditions in the pressurized chamber, same conditions): surprisingly superior

CCCCCc1cc2c(c(O)c1C(=O)O)-c1cc(C)ccc1C(C)(C)O2 [CBNA, cannabinolic acid]
neuroprotection (Cell Death % vs Vehicle Control) [4]: statistically significant neuroprotection

C=C(C)c1ccc(C)cc1-c1c(O)cc(CCCCC)cc1O [CBND]
toxicity when in contact with neurons ([2]; concentration of about 1.5 μM): high toxicity
toxicity when in contact with neurons ([2]; concentration of about 5 μM): high toxicity
neuroprotection (Cell Death % vs Normal Pressure Vehicle Control) ([3]; 0.5 μM, 1.5 μM and 5 μM): absence of significant neuroprotection

CCCCCc1cc(O)c2c(c1)OC(C)(C)[C@@H]1CCC(C)=C[C@@H]21 [Δ^9-THC, Δ^9-tetrahydrocannabinol]
toxicity when in contact with neurons ([2]; concentration of about 5 μM): high toxicity
neuroprotection (Cell Death % vs Normal Pressure Vehicle Control) ([3]; 0.5 μM, 1.5 μM and 5 μM): absence of significant neuroprotection
